Measurements: ChEMBL document CHEMBL1149405, “Cytotoxicity of novel derivatives of the spin trap EMPO” (2006)
Active and inactive are the calls of the source. No cut-off for these calls is given here.

Assays:
SW480 [1] = assay: Decrease in cell number against human colon carcinoma SW480 cell line at 50 mM; assay type: functional; design: scale not given: the % may be the effect or the level left
SW480 [2] = assay: Decrease in cell number against human colon carcinoma SW480 cell line at 100 mM; assay type: functional; design: scale not given: the % may be the effect or the level left
SW480 [3] = assay: LDH release per cell after 24 h with 50 mM of compound in SW480 cell line; assay type: functional, Homo sapiens
F2000 = assay: LDH release per cell after 24 h with 50mM of compound F2000 fibroblasts; assay type: functional, Homo sapiens
SK-BR-3 = assay: LDH release per cell after 24 h with 50 mM of compound in SKBr3 cell line; assay type: functional, Homo sapiens
SW480 [4] = assay: Increase in intracellular GSH levels at 50 mM expressed in […] cell line; assay type: functional, cell-based; settings: Homo sapiens
SW480 [5] = assay: Increase in intracellular GSH levels at 10mM expressed in […] cell line; assay type: functional, cell-based; settings: Homo sapiens
SW480 [6] = assay: Decrease in intracellular GSH levels at 50 mM expressed in […] cell line; assay type: functional, Homo sapiens; design: scale not given: the % may be the effect or the level left

SMILES: CCCCOC(=O)C1(C)CCC=[N+]1[O-] (configuration not stated)
- Activity (SW480 [1]): 10%
- Activity (SW480 [2]): >90%

SMILES: CC(C)(C)OC(=O)C1(C)CCC=[N+]1[O-] (configuration not stated)
- Activity (SW480 [3]): 1280%
- Activity (SW480 [1]): 10%
- Activity (F2000): 670%
- Activity (SK-BR-3): 720%
- Activity (SW480 [2]): >90%

SMILES: CC(C)OC(=O)C1(C)CCC=[N+]1[O-] (configuration not stated)
- Activity (SW480 [3]): 78%
- Activity (SW480 [4]): Active
- Activity (SW480 [5]): Active
- Activity (SW480 [1]): 10%
- Activity (F2000): 84%
- Activity (SK-BR-3): 54%
- Activity (SW480 [2]): <60%

SMILES: CCC(C)OC(=O)C1(C)CCC=[N+]1[O-] (configuration not stated)
- Activity (SW480 [3]): 1404%
- Activity (SW480 [1]): 10%
- Activity (F2000): 1211%
- Activity (SW480 [6]): 67%
- Activity (SK-BR-3): 101%
- Activity (SW480 [2]): >90%

SMILES: CCCOC(=O)C1(C)CCC=[N+]1[O-] (configuration not stated)
- Activity (SW480 [3]): 91%
- Activity (SW480 [5]): Active
- Activity (SW480 [1]): 10%
- Activity (F2000): 105%
- Activity (SW480 [6]): 38%
- Activity (SK-BR-3): 60%
- Activity (SW480 [2]): <60%
